Test results: patent publication US7579356B2, “Thia-tetraazaacenaphthylene kinase inhibitors” (Janssen Pharmaceutica NV, priority 2005, dated 2009)

How the values were obtained:
EGFR = target: T1, EGFR (Homo sapiens, UniProt P00533); assay: EGFR Kinase Assay; type: biochemical; conditions: for IC50: GST-EGFR, ATP 5 μM
T1 construct: The intracellular portion of EGFR started at nucleotide 2189 (corresponding to amino acid 667) and ended at the termination codon; made in house; host or cells: Sf9 insect cells (baculovirus)
Procedure, shortened: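 GST-fused human EGFR intracellular domain (from aa 667), Sf9-expressed, phosphorylated biotinylated polyGluTyr with 5 μM ATP plus γ-33P ATP in Tris pH 8.0, MgCl2, vanadate, 1 mM DTT, 1 h at 30 °C. Streptavidin Flashplate scintillation read; triplicate 16-point half-log series from 200 uM; IC50 from % inhibition vs log concentration, else % inhibition at 2 μM.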

HER-4 = target: T2, HER-4 (Homo sapiens, UniProt Q15303); assay: HER-4 Kinase Assay; type: biochemical
T2 construct: His6 with thrombin site (N); purchased Proqinase (Freiburg, Germany)
Experimental: The HER-4 kinase used was purified at Proqinase (Freiburg, Germany) from a construct that consisted of a fusion of GST (Glutathione-S-Transferase), HIS6-Thrombin and the nucleotides encoding amino acids 676 to 1307 of HER-4 (Accession NM 005235).
A mixture of a 10× kinase reaction buffer (600 mM Hepes at pH 7.5, 30 mM Magnesium Chloride, 0.03 mM Sodium Vanadate and 500 μg/mL PEG 20,000), DTT (1.2 mM final from a 10 mM) stock), ATP (1 μM from a 10 mM stock), biotinylated polyGluTyr (1.5 ng/μL final from stock of 1 μg/μL) prepared by Upstate Biotechnologies, Lake Placid, N.Y.), Manganese Chloride (3 mM final from a 1 M stock), γ-^33P-ATP (10 μCl/mL stock) and water (70 μL/well) was added to each well of a Streptavidin Flashplate (Cat. # SMP103, NEN, Boston, Mass.).
Test compound stock (1 μL) was added to the appropriate wells. Diluted GST HER-4 kinase (6.7 ng/μL diluted into 50 mM Tris-HCl at pH 8.0 and 0.1% bovine serum albumin) (30 μL) was added (total volume of 200 ng/well) to initiate the reactions.
The reaction plates were incubated at 30° C. for 1 hr. The reaction was terminated by aspirating the reaction mixture from the plate wells and washing the wells three times with a 1×PBS stop buffer (300 μL) and 100 mM EDTA. After the final wash, the same stop buffer (200 μL) was again added to the wells. The plates were then sealed and read on the TopCount scintillation counter.
For a series of test concentrations, the IC50 was derived by graphing percent inhibition against the log of the concentrations tested for a given compound.

HER-2 = target: T3, HER-2 (Homo sapiens, UniProt P04626); assay: HER-2 Kinase Assay; type: biochemical; conditions: value in parentheses
T3 construct: His6 with thrombin site (N); purchased Proqinase (Freiburg, Germany)
Procedure, shortened: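 GST/HIS6-tagged HER-2 aa 679–1255 kinase with biotinylated polyGluTyr (1.5 ng/μL), 1 μM ATP plus γ-33P-ATP, Mg2+/Mn2+, DTT, Hepes pH 7.5; 1 h at 30 °C. Substrate phosphorylation captured on streptavidin scintillation plates after EDTA/PBS washes; values are % inhibition at 1 μM or IC50.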

N87 cells = assay: In Vivo Models - Inhibition of Tumor Growth, N87; conditions: Mus musculus, po, 720 h, 100 mg/kg, oral daily for 30 days, athymic mice; read-out: percent inhibition N87
Experimental: In Vivo Models—Inhibition of Tumor Growth
The ability of test compounds to inhibit unregulated growth of human tumor cells in vivo was evaluated by implanting human tumor cells into the hindflank of athymic mice, administering a test compound and then quantifying any change in tumor size.
Human epidermoid A431 carcinoma, N87 cells and BT474 cells were implanted subcutaneously into the hindflank of female athymic mice (Charles River) and allowed to grow for 6-10 days. After a measurable tumor was established (as determined by baseline caliper measurement), the animal was administered an oral dose of the test compound daily for a period of 30 days. Tumor size was measured every five days and the degree of inhibition was determined by comparing drug-treated animals to vehicle-treated animals.
Variations of this method are intended to include intraperitoneal injection or intravenous infusion as the route of administration and administration of the test compound either alone or in a combination therapy.
The inhibition of tumor growth values are shown in Table 8 at various test concentrations, as indicated. For compounds with multiple values at one test concentration, each value represents a separate assay result.

T2 sequence (Q15303 676-1307): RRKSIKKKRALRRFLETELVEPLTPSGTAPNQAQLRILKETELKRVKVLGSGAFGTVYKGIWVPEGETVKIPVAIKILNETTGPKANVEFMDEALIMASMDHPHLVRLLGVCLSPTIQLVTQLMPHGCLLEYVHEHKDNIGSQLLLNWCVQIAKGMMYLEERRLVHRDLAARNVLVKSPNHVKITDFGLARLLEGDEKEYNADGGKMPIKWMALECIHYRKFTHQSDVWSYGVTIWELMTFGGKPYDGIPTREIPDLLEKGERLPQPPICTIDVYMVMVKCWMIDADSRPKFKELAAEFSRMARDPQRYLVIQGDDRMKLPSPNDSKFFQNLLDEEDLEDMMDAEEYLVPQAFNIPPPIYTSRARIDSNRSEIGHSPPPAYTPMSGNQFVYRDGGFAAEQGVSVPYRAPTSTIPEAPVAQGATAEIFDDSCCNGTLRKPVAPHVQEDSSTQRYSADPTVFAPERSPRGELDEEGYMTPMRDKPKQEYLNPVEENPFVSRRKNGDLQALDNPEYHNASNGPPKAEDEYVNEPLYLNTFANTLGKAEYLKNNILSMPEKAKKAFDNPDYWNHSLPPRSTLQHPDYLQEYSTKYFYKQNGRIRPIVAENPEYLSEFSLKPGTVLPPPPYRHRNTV
T1 sequence (P00533 669-1210 limits assumed): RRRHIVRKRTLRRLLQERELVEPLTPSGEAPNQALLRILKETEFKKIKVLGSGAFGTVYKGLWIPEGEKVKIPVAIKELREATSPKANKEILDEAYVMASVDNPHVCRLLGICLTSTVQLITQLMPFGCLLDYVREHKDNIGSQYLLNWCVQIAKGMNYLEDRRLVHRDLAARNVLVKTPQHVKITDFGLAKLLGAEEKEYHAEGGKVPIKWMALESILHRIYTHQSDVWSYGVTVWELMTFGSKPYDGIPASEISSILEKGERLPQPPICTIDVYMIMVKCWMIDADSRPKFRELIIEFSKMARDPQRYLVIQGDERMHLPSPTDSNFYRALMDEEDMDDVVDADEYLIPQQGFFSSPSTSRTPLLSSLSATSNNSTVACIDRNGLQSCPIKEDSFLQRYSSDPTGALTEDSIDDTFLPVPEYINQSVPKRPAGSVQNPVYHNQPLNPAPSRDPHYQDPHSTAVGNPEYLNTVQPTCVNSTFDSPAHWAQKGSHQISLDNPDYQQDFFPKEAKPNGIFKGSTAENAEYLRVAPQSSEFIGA
T3 sequence (P04626 679-1255): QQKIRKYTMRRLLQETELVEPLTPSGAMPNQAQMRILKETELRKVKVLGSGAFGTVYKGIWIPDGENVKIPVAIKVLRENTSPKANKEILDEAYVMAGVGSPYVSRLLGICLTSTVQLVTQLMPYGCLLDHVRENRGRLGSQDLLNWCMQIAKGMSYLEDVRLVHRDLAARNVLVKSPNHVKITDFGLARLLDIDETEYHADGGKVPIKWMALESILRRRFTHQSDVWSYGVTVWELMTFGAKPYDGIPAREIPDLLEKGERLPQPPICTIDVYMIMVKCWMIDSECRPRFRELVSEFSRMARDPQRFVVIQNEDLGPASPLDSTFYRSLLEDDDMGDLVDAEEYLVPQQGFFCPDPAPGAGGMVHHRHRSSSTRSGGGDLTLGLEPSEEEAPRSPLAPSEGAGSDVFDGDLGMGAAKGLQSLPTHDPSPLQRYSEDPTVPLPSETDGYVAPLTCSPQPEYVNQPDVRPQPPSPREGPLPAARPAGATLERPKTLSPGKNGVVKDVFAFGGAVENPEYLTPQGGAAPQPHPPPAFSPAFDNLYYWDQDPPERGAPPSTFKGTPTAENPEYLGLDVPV

Row | Structure (SMILES) | IC50 (EGFR) | IC50 (HER-4) | IC50 (HER-2) | inhibition at 2 µM (EGFR; test concentration of 2 μM, compounds without an IC50, read-out: EGFR inhibition in percent) | inhibition in vivo at 100 mg/kg (N87 cells)
1 | Cc1cc(NC(=O)c2sc3ncnc4c3c2NC(=O)N4c2ccc(Oc3ccccc3)cc2)ccc1CN1CCOCC1 [Cpd 232, 4-oxo-5-(4-phenoxy-phenyl)-4,5-dihydro-3H-1-thia-3,5,6,8-tetraaza-acenaphthylene-2-carboxylic acid (3-methyl-4-morpholin-4-ylmethyl-phenyl)-amide] | 41 nM | – | 28 nM | – | 30.3%
2 | O=C(Nc1ccc(CN2CCCC(F)C2)cc1)c1sc2ncnc3c2c1NC(=O)N3c1ccc(Oc2ccccc2)cc1 (centres unmarked) [Cpd 234, 4-oxo-5-(4-phenoxy-phenyl)-4,5-dihydro-3H-1-thia-3,5,6,8-tetraaza-acenaphthylene-2-carboxylic acid [4-(3-fluoro-piperidin-1-ylmethyl)-phenyl]-amide] | 52 nM | 59 nM | 34 nM | – | –
3 | O=C(Nc1ccc(CN2CCOCC2)cc1)c1sc2ncnc3c2c1NC(=O)N3c1ccc(OCc2ccco2)c(Cl)c1 [Cpd 245, 5-[3-chloro-4-(furan-2-ylmethoxy)-phenyl]-4-oxo-4,5-dihydro-3H-1-thia-3,5,6,8-tetraaza-acenaphthylene-2-carboxylic acid (4-morpholin-4-ylmethyl-phenyl)-amide] | 24 nM | 227 nM | 48 nM | – | 48.7%
4 | O=C(Nc1ccc(CN2CCC(F)CC2)cc1)c1sc2ncnc3c2c1NC(=O)N3c1ccc(Oc2ccccc2)cc1 [Cpd 250, 4-oxo-5-(4-phenoxy-phenyl)-4,5-dihydro-3H-1-thia-3,5,6,8-tetraaza-acenaphthylene-2-carboxylic acid [4-(4-fluoro-piperidin-1-ylmethyl)-phenyl]-amide] | 37 nM | 33 nM | 26 nM | – | 68.9%
5 | CN(C)c1cc(NC(=O)c2sc3ncnc4c3c2NC(=O)N4c2ccc(Oc3ccccc3)cc2)ccc1CN1CCOCC1 [Cpd 257, 4-oxo-5-(4-phenoxy-phenyl)-4,5-dihydro-3H-1-thia-3,5,6,8-tetraaza-acenaphthylene-2-carboxylic acid (3-dimethylamino-4-morpholin-4-ylmethyl-phenyl)-amide] | 96 nM | – | 24 nM | – | 71.2%
6 | O=C(Nc1ccc(CN2CCC(F)(F)CC2)cc1)c1sc2ncnc3c2c1NC(=O)N3c1ccc(Oc2ccccc2)cc1 [Cpd 263, 4-oxo-5-(4-phenoxy-phenyl)-4,5-dihydro-3H-1-thia-3,5,6,8-tetraaza-acenaphthylene-2-carboxylic acid [4-(4,4-difluoro-piperidin-1-ylmethyl)-phenyl]-amide] | – | – | 523 nM | 83% | 18.1%

Molecules with a lower IC50 (HER-2), results first:

Row | IC50 (EGFR) | IC50 (HER-4) | IC50 (HER-2) | inhibition at 2 µM (EGFR; test concentration of 2 μM, compounds without an IC50, read-out: EGFR inhibition in percent) | Structure (SMILES) | inhibition in vivo at 100 mg/kg (N87 cells)
7 | 35 nM | – | 19 nM | – | O=C(Nc1ccc(CN2CCOCC2)c(O)c1)c1sc2ncnc3c2c1NC(=O)N3c1ccc(Oc2ccccc2)cc1 [Cpd 262, 4-oxo-5-(4-phenoxy-phenyl)-4,5-dihydro-3H-1-thia-3,5,6,8-tetraaza-acenaphthylene-2-carboxylic acid (3-hydroxy-4-morpholin-4-ylmethyl-phenyl)-amide] | 70.5%
8 | 22 nM | 47 nM | 12 nM | – | COc1cc(NC(=O)c2sc3ncnc4c3c2NC(=O)N4c2ccc(Oc3ccccc3)cc2)ccc1CN1CCOCC1 [Cpd 176, 4-oxo-5-(4-phenoxy-phenyl)-4,5-dihydro-3H-1-thia-3,5,6,8-tetraaza-acenaphthylene-2-carboxylic acid (3-methoxy-4-morpholin-4-ylmethyl-phenyl)-amide] | –
9 | 21 nM | – | 11 nM | – | NC1CCN(Cc2ccc(NC(=O)c3sc4ncnc5c4c3NC(=O)N5c3ccc(Oc4ccccc4)cc3)cc2)CC1 [Cpd 259, 4-oxo-5-(4-phenoxy-phenyl)-4,5-dihydro-3H-1-thia-3,5,6,8-tetraaza-acenaphthylene-2-carboxylic acid [4-(4-amino-piperidin-1-ylmethyl)-phenyl]-amide] | 46.8%
